Results from US8669253B2, “Methods for treating glaucoma and macular degeneration” (Duke University, priority 2006, dated 2014).
Several values for one entry are separate records, joined by “and”; a condition that tells them apart may be missing. Equal entries are not always repeated. Entries after “also recorded” stand apart in the source; their conditions may differ.

Experiments:
[1] = system: GFP-Ras-CVLL in MDCK cells; test: Localization of GFP-Ras-CVLL in MDCK cells; format: cell-based; conditions: for localization of Ras-CVLL: 20 μM, 24 h
Experimental: (§1) MDCK cells stably expressing GFP-H-Ras were a gift from Mark Philips (New York University School of Medicine). Ras-CVLL was cloned into pEGFP (Clontech) and used to transfect MDCK cells. Stable clones were then selected using […] Geneticin and expression confirmed by analysis of GFP expression as visualized by fluorescence microscopy. MDCK cells were always cultured as a monolayer in DMEM with 10% FBS. For drug treatment experiments, cells were plated onto glass-bottom microwell dishes (MatTek Corp, Ashland, Mass.) and experiments initiated approximately 24 h after cells reached confluence. All compounds tested were dissolved in DMSO and added to cells at a final DMSO concentration of 0.02%.
(§2) Assessment of receptor independent cell rounding was accomplished using adenovirus expressing the activated mutant of Gα12, Gα12QL (31). MDA-MB-231 cells were plated onto glass-bottom microwell dishes at 60% confluence and grown for 18-24 h in the presence of serum. Cells were then washed once with PBS and media replaced with serum-free media (DMEM) including any indicated compounds and incubated 6 h before addition of recombinant adenovirus. Following an additional 12 h incubation, cells were imaged using brightfield and GFP fluorescence microscopy. Cell images were acquired using an Eclipse TE300 microscope (Nikon) using either an oil immersion lens at 600× (for fluorescence of MDCK cells) or a plan fluor lens at 200× (for MBA-321 cells) and a SPOT digital camera (Diagnostic Instruments, Sterling Heights, Mich.) employing SPOT RT 3.02 software.

GFP-H-Ras in MDCK cells = test: Localization of GFP-H-Ras in MDCK cells; format: cell-based; conditions: 20 μM, 24 h
Experimental: as §1
as §2, with “Cells were then washed once with PBS and media replaced with serum-free media (DMEM) including any indicated compounds and incubated 6 h before addition of recombinant adenovirus.” left out

[2] = system: Rap1 prenylation in MDA-MB-231 cells; test: Unprenylated Rap1 analysis (immunoblot); format: cell-based; conditions: 24 h
Experimental: To measure levels of unprenylated Rap1 in cells, whole cell lysates of MDA-MB-231 cells (prepared identically to Gβγ partitioning above, 75 ug) were mixed with Laemmli loading buffer and boiled. Samples were then separated by electrophoresis on denaturing 4-20% polyacrylamide gels and proteins transferred to nitrocellulose membranes for immunoblotting with antisera specific for the unprenylated form of Rap1 (Santa Cruz, sc-1482, goat). Sample loading was verified by reprobing blots with antisera for total Rap1 (Santa Cruz, sc-65, rabbit).

[3] = system: Rho association with RhoGDI in MDA-MB-231 cells; test: RhoGDI-Rho interaction assay (GST-RhoGDI pull-down); format: cell-based; conditions: 24 h, GGTI-DU40 5 μM, FTI 20 μM
Experimental: The interaction of GST-RhoGDI with endogenous Rho was assessed by protein interaction experiments. RhoGDI was generated as a glutathione-S-transferase fusion protein using a construct provided by Gary Bokoch (Scripps). The GST-RhoGDI fusion protein was incubated with treated MDA-MB-231 cell lysates (prepared identically to Gβγ partitioning above) for 1 hr at 4° C. in a total volume of 200 μl. Glutathione-sepharose was added and the mixture rotated at 4° C. for 30 min after which the affinity matrix was pelleted and washed three times with 500 μl of incubation buffer (70 mM HEPES, pH 7.5, 2 mM EDTA, 1 mM DTT, 150 mM NaCl, 0.1% Tween, 100 μM GDP, 2 mM MgCl2). Proteins retained on the matrix were solubilized in 2× Laemmli loading buffer and separated by electrophoresis on denaturing, 4-20% polyacrylamide gels. Proteins were transferred to nitrocellulose membranes for immunoblotting with an anti-RhoA antibody (Santa Cruz, sc-179).

MDA-MB-231 cells [4] = test: Thrombin-induced cell rounding; format: cell-based; conditions: 24 h pretreatment, GGTI-DU40 5 μM, SN-DU40 and FTI 20 μM, thrombin 20 min
Experimental: For the experiments assessing thrombin effects on cell morphology, MDA-MB-231 cells were plated onto glass-bottom microwell dishes at 10-20% confluence and grown for 18-24 h in the presence of serum. Cells were then washed once with PBS and media replaced with serum-free media (DMEM) including indicated compounds and incubated an additional 24 h. Cells were then imaged, treated with thrombin (1 U/mL for 20 min), and imaged again.

GGTase-I = biological target: T1, GGTase-I (Homo sapiens, UniProt P53609); test: GGTase-I enzyme assay (3H-GGPP incorporation into Ras-CVLL); format: biochemical, mammalian
T1 construct: made in house; host or cells: Sf9 cells
Experimental: (§3) FTase and GGTase-I activities were determined by following incorporation of radiolabeled isoprenoid from ^3H-FPP and ^3H-GGPP into Ras proteins as described previously (28). Briefly, purified mammalian FTase or GGTase-I (50 ng, expressed in Sf9 cells) (29, 30) were used to initiate reactions containing 0.5 μM FPP or GGPP, respectively and 1 μM of the appropriate purified His-tagged Ras substrates (H-Ras for FTase; Ras-CVLL for GGTase-I). Where indicated in the appropriate Figure legend, inhibitors were added at the indicated concentrations. Final DMSO concentration was 2% for all samples. Reactions were carried out for 10 min at 30° C. before precipitation and product determination. Kinetic assays in which GGPP concentration was varied employed 5 ng GGTase-I, and reactions were carried out for five min to prevent GGTase-I concentration from exceeding GGPP concentration.
Graphing and curve fitting were performed using Prism (GraphPad, SanDiego Calif.). Substrate-velocity curves were fit to the Michaelis-Menten equation, while double-reciprocal plots were fit using linear regression. The Ki for GGTI-DU40 was calculated using nonlinear regression and shared parameter curve fitting for all inhibitor concentrations, the velocity equation used was v=Vmax[S]/(Km(1+([I]/Ki))+[S]).

FTase = biological target: T2, FTase (Homo sapiens, UniProt P49356); test: FTase enzyme assay (3H-FPP incorporation into H-Ras); format: biochemical, mammalian
T2 construct: made in house; host or cells: Sf9 cells
Experimental: as §3

[5] = biological target: T3, GGTase-II (Rab geranylgeranyltransferase) (Bos taurus, UniProt Q5E9B3); test: GGTase-II activity assay (bovine brain cytosol, Rab5a substrate); format: biochemical; conditions: concentration range tested
T3 construct: bovine brain cytosol (200 μg protein) as the enzyme source; from tissue; host or cells: bovine brain cytosol
T3 sequence (Q5E9B3 1-331): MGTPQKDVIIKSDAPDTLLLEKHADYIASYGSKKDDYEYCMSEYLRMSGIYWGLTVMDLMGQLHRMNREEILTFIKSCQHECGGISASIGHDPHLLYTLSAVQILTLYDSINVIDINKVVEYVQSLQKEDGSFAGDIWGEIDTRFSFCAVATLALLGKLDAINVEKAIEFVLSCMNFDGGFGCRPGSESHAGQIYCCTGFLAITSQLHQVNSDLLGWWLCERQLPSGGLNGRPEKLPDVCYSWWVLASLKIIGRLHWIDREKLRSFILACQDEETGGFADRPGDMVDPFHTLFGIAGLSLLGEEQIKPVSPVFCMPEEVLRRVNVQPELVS
Experimental: GGTase-II activity was measured used bovine brain cytosol (200 μg protein) as the enzyme source and purified GST-tagged Rab5a as the protein substrate. The pGEX-Rab5a construct was a gift from Adrienne Cox (University of North Carolina). The assay was performed identically to that described above for the CaaX prenyltransferases except for the enzyme source and protein substrate and that the reaction time was increased to for 30 min.

Icmt = biological target: T4, Icmt (Homo sapiens, UniProt O60725); test: Icmt assay; format: biochemical; conditions: concentration range tested
T4 construct: made in house; host or cells: Sf9 (membrane preparation)
Experimental: Icmt assays were performed as described previously (27). Briefly, reactions were performed using biotin-S-famsyl-L-cysteine (4 μM) as a substrate and ^3H-AdoMet (5 μM, 7.5 Ci/mmol) as a methyl donor. Reactions were initiated by the addition of Sf9 membranes containing recombinant human Icmt (2 μg totoal protein) in the presence and absence of inhibitors. Reactions were carried out at room temperature for 20 min, and product formation determined.

Gβγ in MDA-MB-231 cells = test: Gβγ membrane partitioning; format: cell-based; conditions: 24 h
Experimental: MDA-MB-231 cells were grown in 10 cm dishes and treated exactly as in the thrombin cell rounding assay. Following drug treatment in serum free media, cells were harvested and lysed using ice cold hypotonic lysis buffer (70 mM HEPES pH 7.4, 2 mM EDTA, 1 mM DTT, and protease inhibitors). Following sonication, the whole cell lysate (75 μg protein) was centrifuged at 100,000×g for 45 min. Both the supernatant (S100) and pellet (P100) fractions were processed on 4-20% SDS-polyacrylamide gels and proteins transferred to nitrocellulose membranes for immunoblot analysis.

MDA-MB-231 cells [6] = test: Thrombin-induced calcium mobilization (Fura-2); format: cell-based; conditions: 5 μM, 24 h
Experimental: For the experiments assessing thrombin-induced calcium flux, MDA-MB-231 were plated on glass coverslips and treated similarly to that described for the thrombin rounding experiments. Calcium flux was measured 24 h after withdrawal of serum and addition of inhibitors using the calcium-sensitive dye Fura 2-AM (Molecular Probes Inc)(32). MDA-MB-231 cells were dye loaded for 1 h with 2.5 μM Fura-2 AM in Hanks balanced salt solution (HBSS, supplemented with 10 mM glucose and 0.1% BSA). After dye loading, the coverslips were placed in a temperature controlled recording chamber and superfused with Hanks solution. Cells were excited alternately at 340 and 380 nm and fluorescence emission at 510 nm was measured every four sec during the course of each experiment. After baseline recording for 2 min, thrombin (1 U/mL) was superfused into the bath chamber for 1 min (˜20 mL), followed by washout. Data is presented after baseline subtraction to show thrombin dependent calcium flux. Fluorescence measurements were acquired using a DeltaScan Illumination System (Photon Technology International (PTI), South Brunswick, N.J.) running on FELIX 1.4 software.

MDA-MB-231 cells [7] = test: Receptor independent cell rounding by Gα12QL expression; format: cell-based
Experimental: as §2

[8] = system: porcine TM primary cell cultures; test: TM cell morphology, actin cytoskeleton and focal adhesions; format: cell-based; conditions: 5 to 40 μM, 6 hours, 10% serum
Experimental: (§4) Methods: A selective inhibitor of GGTase-I (GGTI-DU40) was tested in this study to investigate its effects on actin cytosketal integrity, cell adhesions, cell-cell junctions, myosin II phosphosphorylation, and membrane localization of Rho, Rap and G-beta/gamma in trabecular meshwork (TM) cells, using immunofluorescence detection and immunobloting analysis. The effects of GGTI-DU40 on aqueous humor outflow were determined using organ cultured, perfused anterior segments of porcine eyes.
The porcine TM primary cell cultures were treated with GGTI compounds in the presence of 10% serum for 6 hours and recorded for the changes in cell morphology (phase contrast microscope), actin cytoskeletal organization (phalloidin staining) and focal adhesions (vinculin staining).

[9] = system: myosin light chain (MLC) phosphorylation in porcine primary TM cells; test: Myosin light chain phosphorylation in TM cells; format: cell-based; conditions: 6 hours, 10% serum
Experimental: as §4
Porcine primary TM cells were treated with GGTI compounds for 6 hours in the presence of 10% serum and the cell lysates were analyzed for the changes in myosin light chain (MLC) phosphorylation using phosphospecific-anti-MLC antibody.

[10] = system: Rho, Rap and G-beta/gamma in trabecular meshwork (TM) cells; test: Membrane localization of Rho, Rap and G-beta/gamma in TM cells; format: cell-based, porcine; conditions: drug-treated TM cells
Experimental: as §4

[11] = system: organ cultured anterior segments of porcine eyes; test: Aqueous humor outflow facility in organ cultured, perfused anterior segments; conditions: 10 μM or 25 μM, perfused for 24 to 96 hours, n=8, change from baseline facility
Experimental: as §4
GGTI-396586 was perfused in organ cultured anterior segments of enucleated porcine eyes at a constant flow at 37° C. Changes in aqueous humor outflow facility were determined. Values are expressed as percent change in outflow facility from baseline facility.

T4 sequence (O60725 whole entry): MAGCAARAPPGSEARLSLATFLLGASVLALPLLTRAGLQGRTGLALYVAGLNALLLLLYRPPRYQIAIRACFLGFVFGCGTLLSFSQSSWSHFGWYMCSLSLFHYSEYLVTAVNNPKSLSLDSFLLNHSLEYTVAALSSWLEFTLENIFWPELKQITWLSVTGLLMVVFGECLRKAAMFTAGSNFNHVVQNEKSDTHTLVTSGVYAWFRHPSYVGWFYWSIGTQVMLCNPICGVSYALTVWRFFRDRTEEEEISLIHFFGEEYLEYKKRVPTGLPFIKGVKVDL

CC[C@H](C)[C@@H](CO[C@@H](Cc1ccccc1)C(=O)N[C@@H](CCS(C)(=O)=O)C(=O)OC(C)C)NC[C@@H](N)CS [L-744,832, reference compound]
localization of Ras-CVLL [1]: no detectable mislocalization | localization of H-Ras (GFP-H-Ras in MDCK cells): almost complete mislocalization | level of unmodified (unprenylated) Rap1 [2]: no effect | ability of Rho proteins to associate with RhoGDI [3]: no effect | thrombin-stimulated cell rounding (MDA-MB-231 cells [4]): normal rounding

CSCCc1c(-c2cccnc2)nn(-c2ccc(Cl)c(Cl)c2)c1OCCCC(=O)N[C@@H](Cc1ccccc1)C(N)=O [GGTI-DU40, N—[(S)-1-Carbamoyl-2-phenylethyl]-4-[2-(3,4-dichlorophenyl)-4-(2-methylsulfanylethyl)-5-pyridin-3-yl-2-H-pyrazol-3-yloxy]butyramide]
FTase/GGTase-I selectivity ratio (GGTase-I): > 250 | mode of inhibition with respect to the protein substrate (GGTase-I; GGPP fixed, Ras-CVLL varied, 2-20 nM inhibitor): competitive inhibitor | mode of inhibition with respect to GGPP (GGTase-I; Ras-CVLL fixed, GGPP varied, 2-20 nM inhibitor): uncompetitive inhibitor | time-dependent inhibition of GGTase-I (GGTase-I; data not shown): no such behavior was observed | Ki (GGTase-I; protein substrate competition data, nonlinear regression, read-out: Ki for GGTase-I inhibition): < 1 nM and 0.78 nM and 0.8 nM | IC50 (GGTase-I; purified GGTase-I): 8.24 nM | IC50 (FTase): > 2000 nM | activity against GGTase-II [5]: no detectable activity | activity against Icmt methyltransferase (Icmt): no detectable activity | localization of Ras-CVLL [1]: complete mislocalization | lowest inhibitor concentration at which Ras-CVLL mislocalization could be detected ([1]; data not shown): 2 µM | localization of H-Ras (GFP-H-Ras in MDCK cells): without an effect | level of unmodified (unprenylated) Rap1 [2]: dose dependent increase | ability of Rho proteins to associate with RhoGDI [3]: almost complete loss | thrombin-stimulated cell rounding (MDA-MB-231 cells [4]): dramatically inhibited | membrane-associated Gβγ (Gβγ in MDA-MB-231 cells): partial loss | ability of thrombin to elicit calcium mobilization (MDA-MB-231 cells [6]): unaffected | total calcium flux versus control (MDA-MB-231 cells [6]; integration of time with fluorescence): no statistical difference | rounding of cells elicited by expression of Gα12QL (MDA-MB-231 cells [7]): blocked | actin stress fibers and focal adhesions [8]: reversible decreases | changes in TM cell morphology [8]: dose dependent | myosin light chain phosphorylation [9]: decreased significantly; also recorded: significantly reduced | membrane localization of Rho, Rap and G-beta/gamma [10]: impaired | increase in aqueous outflow facility [11]: 30%
